The record followed here is patent US10654856B2, “Method for preparing pyrrolo[3,2-D]pyrimidine compound, and intermediates thereof” (CHIA TAI TIANQING PHARMACEUTICAL GROUP CO., LTD., priority 2016, dated 2020).

Chain of Toll-like receptor 7 (Q9NYK1 27-1049): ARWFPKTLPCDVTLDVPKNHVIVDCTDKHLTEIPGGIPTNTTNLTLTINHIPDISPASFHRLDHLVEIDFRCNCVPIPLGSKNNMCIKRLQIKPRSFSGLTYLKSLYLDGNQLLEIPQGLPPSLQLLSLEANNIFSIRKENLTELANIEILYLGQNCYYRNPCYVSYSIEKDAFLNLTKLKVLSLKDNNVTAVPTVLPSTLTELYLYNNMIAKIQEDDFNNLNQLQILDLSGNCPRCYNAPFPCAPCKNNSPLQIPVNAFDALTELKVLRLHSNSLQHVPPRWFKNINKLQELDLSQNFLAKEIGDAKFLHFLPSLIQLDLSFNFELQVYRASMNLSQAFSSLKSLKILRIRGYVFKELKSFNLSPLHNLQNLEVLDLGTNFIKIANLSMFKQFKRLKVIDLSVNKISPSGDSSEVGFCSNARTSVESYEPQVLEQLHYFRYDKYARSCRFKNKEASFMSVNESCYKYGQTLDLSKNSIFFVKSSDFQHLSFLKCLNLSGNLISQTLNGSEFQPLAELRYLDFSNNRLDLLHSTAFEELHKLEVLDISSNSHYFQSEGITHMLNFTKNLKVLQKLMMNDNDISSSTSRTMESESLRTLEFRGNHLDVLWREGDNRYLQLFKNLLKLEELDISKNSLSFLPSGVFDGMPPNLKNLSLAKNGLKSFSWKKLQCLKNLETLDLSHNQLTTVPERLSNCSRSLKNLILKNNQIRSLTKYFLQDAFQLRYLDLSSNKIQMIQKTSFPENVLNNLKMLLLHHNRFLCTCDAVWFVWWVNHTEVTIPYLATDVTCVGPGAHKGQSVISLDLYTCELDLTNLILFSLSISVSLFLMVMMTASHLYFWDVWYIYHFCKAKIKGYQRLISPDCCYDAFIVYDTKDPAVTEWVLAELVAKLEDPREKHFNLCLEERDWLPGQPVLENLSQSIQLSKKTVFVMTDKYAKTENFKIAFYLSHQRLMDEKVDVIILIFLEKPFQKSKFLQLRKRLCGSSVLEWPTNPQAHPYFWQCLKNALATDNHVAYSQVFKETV

The experiment has as its target Toll-like receptor 7 (Homo sapiens (Human), UniProt Q9NYK1). Nature of the experiment: Toll-like receptor 7 in vitro receptor binding activity screen (HEK-blue hTLR7 cell, Quanti-Blue alkaline phosphatase readout). The class given is cell-based. As to conditions: 24 h incubation, read-out: TLR7 EC50. The procedure: Toll-Like Receptor 7 and Toll-Like Receptor 8 In Vitro Receptor Binding Activity Screen
HEK-blue hTLR7 cell and HEK-blue hTLR8 cell (available from InvivoGen)
heat inactivated fetal bovine serum
Anti Mycoplasma reagent Normocin™
The structures of GS-9620 and R848 used are as follows, wherein the preparation of GS-9620 could be referred to the process disclosed in US20100143301; R848 was commercially available from ABGENT (IMG-2208, specification: 0.5 mg).
1. Preparation of 96-well compound plate:
The compounds were gradient diluted with DMSO in 3-fold using liquid work station POD starting at a concentration of 10 mmol/L and 10 points were diluted (2nd column to 11th column, and each point was duplicated). At 12th column, 1 μL of 5 mg/mL positive compound R848 was added as positive control; and at 1st column, 1 μL of DMSO was added as negative control. Each well contained 1 μL of DMSO.
2. The cells in culture flask were collected and the cell density was diluted to 250,000 cells/mL.
3. 200 μL (50,000 cells/well) of cell suspension was added into prepared compound plate and the final concentration of DMSO in each well was 0.5%.
4. The culture plates containing cells and the compounds were incubated in CO2 incubator for 24 h at 37° C., 5% CO2.
5. After 24 h incubation, 20 μL of supernatant was removed from each well to a 96-well transparent assay plate. To each well of the assay plate was added 180 μL of Quanti-Blue reagent and the plate was incubated in an incubator at 37° C., 5% CO2 for 1 h.
6. After 1 h, the content of alkaline phosphatase in 20 μL of supernatant was determined using Microplate Reader OD650.
7. EC50 of each compound was obtained with Prism software.
On to `CCCCOc1nc(N)c2[nH]cc(Cc3ccc(CN4CCCC4)cc3)c2n1` [Compound 1, 2-butoxy-7-(4-(pyrrolidin-1-ylmethyl)benzyl)-5H-pyrrolo[3,2-d]pyrimidin-4-amine], for which the concentration giving a half-maximal response (EC50) was 100 to 1000 nM.

With `CCCCOc1nc(N)c2[nH]cc(Cc3ccc(CN4CCC(F)(F)C4)cc3)c2n1` [Compound 2], the EC50 lay within 1000 to 50000 nM.

As to `CCCCOc1nc(N)c2[nH]cc(Cc3ccc(CN4CCC(F)C4)cc3)c2n1` (stereo not shown) [Compound 3], the EC50 lay within 100 to 1000 nM.

Consider `CCCCOc1nc(N)c2[nH]cc(Cc3ccc(CN4CCC(O)C4)cc3)c2n1` (stereo not shown) [Compound 4], for which the EC50 was in the range of 100 to 1000 nM.

Take `CCCCOc1nc(N)c2[nH]cc(Cc3ccc(CN4CCCCC4)cc3)c2n1` [Compound 5]: the EC50 fell in the range of 100 to 1000 nM.

As to `CCCCOc1nc(N)c2[nH]cc(Cc3ccc(CN4CCOCC4)cc3)c2n1` [Compound 6], the half-maximal effective concentration (EC50) lay in the range of 1000 to 50000 nM.

Turning to `CCCCOc1nc(N)c2[nH]cc(Cc3ccc(CN4CCN(C)CC4)cc3)c2n1` [Compound 7], the concentration for a half-maximal effect (EC50) was in the range of 1000 to 50000 nM.

Take `CCCCOc1nc(N)c2[nH]cc(Cc3ccc(CN(C)C)cc3)c2n1` [Compound 8]: the EC50 lay in the range of 100 to 1000 nM.

Regarding `CCCCOc1nc(N)c2[nH]cc(Cc3ccc(CN(CC)CC)cc3)c2n1` [Compound 9], the 50% effective concentration (EC50) lay in the range of 100 to 1000 nM.

Regarding `CCCCOc1nc(N)c2[nH]cc(Cc3ccc(CN(CCC)CCC)cc3)c2n1` [Compound 10], the concentration giving a half-maximal response (EC50) was in the range of 100 to 1000 nM.

On to `CCCCOc1nc(N)c2[nH]cc(Cc3ccc(CN4CCC4)cc3)c2n1` [Compound 11], for which the EC50 lay within 100 to 1000 nM.

With `CCCCOc1nc(N)c2[nH]cc(Cc3ccc(CN4CC(OC)C4)cc3)c2n1` [Compound 12], the concentration giving a half-maximal response (EC50) was in the range of 100 to 1000 nM.

On to `CCCCOc1nc(N)c2[nH]cc(Cc3ccc(CN4CCCN(C)CC4)cc3)c2n1` [Compound 13], for which the EC50 was in the range of 100 to 1000 nM.

`CCCCOc1nc(N)c2[nH]cc(Cc3ccc(CN4CC(C)OC(C)C4)cc3)c2n1` (stereo not shown) [Compound 14]: the 50% effective concentration (EC50) lay in the range of 100 to 1000 nM.

`CCCCOc1nc(N)c2[nH]cc(Cc3ccc(CN4CCC(OC)CC4)cc3)c2n1` [Compound 15]: the EC50 was 100 to 1000 nM.

Consider `CCCCOc1nc(N)c2[nH]cc(Cc3ccc(CN4CCN(C(C)C)CC4)cc3)c2n1` [Compound 16], for which the EC50 lay within 100 to 1000 nM.

The EC50 is the concentration at which the effect is half-maximal.
